The compounds below were run against human Autotaxin protein (Homo sapiens, UniProt Q13822) (assay: Evaluation of inhibitory activity against human Autotaxin protein (18:1 LysoPC substrate, choline assay kit, absorbance 570 nm)). Settings: compound at 500 nM, 2 hours at 37° C.
Type: biochemical
Protocol: The solution of each synthesized compound (80 uM, 100% dimethyl sulfoxide) was sequentially diluted 5 times with dimethyl sulfoxide to prepare 6 concentrations. Each concentration of compound was diluted two-fold with 1× test buffer (50 mM Tris-Cl (pH 8.0), 5 mM KCl, 1 mM CaCl2), 1 mM MgCl2, 140 mM NaCl, deionized water, 1 mg/mL BSA), and 1 uL (1.25% dimethyl sulfoxide) of this diluted mixture was dispensed into each well of a 96 well clear round bottom plate. 9 uL of 1× test buffer were added to each well, followed by the addition of 20 uL of 240 nM human Autotaxin protein (buffer: 50 mM Tris-HCl, pH 8.0, with 150 mM sodium chloride and 20% glycerol). 10 uL of sonicated 360 uM 18:1 LysoPC (diluted with 1× test buffer) were added to each well. The reaction was performed for 2 hours in a shaking incubator at 37° C., and a secondary reaction mixture (choline assay kit, KA1662) (65 uL of 1× test buffer: 1 uL of choline oxidase: 1 uL of dye probe) was prepared. 60 uL of the secondary reaction mixture were added to the reaction plate and reacted on a shaker for 30 minutes. Using a SpectraMax iD3 microplate reader, the absorbance was measured at a wavelength of 570 nm. The percentage of inhibition activity (% inhibition) was calculated by the Formula: (1−Absorbancetestgroup/Absorbancecontrol group)×100.

| inhibition at 0.5 µM [%] | SMILES |
| --- | --- |
| 4.8 | Fc1cc2c(cc1F)CC(Nc1ncc(C3CC(N4CCC(c5nnn[nH]5)CC4)=NO3)cn1)C2 (centres unmarked) [Example 52, 5-(3-(4-(1H-tetrazol-5-yl)piperidin-1-yl)-4,5-dihydroisoxazol-5-yl)-N-(5,6-difluoro-2,3-dihydro-1H-inden-2-yl)pyrimidin-2-amine] |
| 10.2 | Fc1ccc2c(c1)CC(Nc1ncc(C3CC(N4CCC(c5nnc(C(F)(F)F)o5)CC4)=NO3)cn1)C2 (centres unmarked) [Example 53, N-(5-fluoro-2,3-dihydro-1H-inden-2-yl)-5-(3-(4-(5-(trifluoromethyl)-1,3,4-oxadiazol-2-yl)piperidin-1-yl)-4,5-dihydroisoxazol-5-yl)pyrimidin-2-amine] |
| 95.3 | CC1CC(c2cnn[nH]2)CCN1c1nnc(-c2cnc(NC3Cc4cc(F)c(F)cc4C3)nc2)o1 (centres unmarked) [Example 54, N-(5,6-difluoro-2,3-dihydro-1H-inden-2-yl)-5-(5-(2-methyl-4-(1H-1,2,3-triazol-5-yl)piperidin-1-yl)-1,3,4-oxadiazol-2-yl)pyrimidin-2-amine] |
| 52 | c1cc2c(cc1CNc1ncc(-c3nnc(N4CCC(c5cnn[nH]5)CC4)o3)cn1)OCO2 [Example 55, 5-(5-(4-(1H-1,2,3-triazol-5-yl)piperidin-1-yl)-1,3,4-oxadiazol-2-yl)-N-(benzo[d][1,3]dioxol-5-ylmethyl)pyrimidin-2-amine] |
| 55.8 | Clc1ccc(CNc2ncc(-c3nnc(N4CCC(c5cnn[nH]5)CC4)o3)cn2)cc1Cl [Example 56, 5-(5-(4-(1H-1,2,3-triazol-5-yl)piperidin-1-yl)-1,3,4-oxadiazol-2-yl)-N-(3,4-dichlorobenzyl)pyrimidin-2-amine] |
| 88.1 | Fc1cc(F)cc(CNc2ncc(-c3nnc(N4CCC(c5cnn[nH]5)CC4)o3)cn2)c1 [Example 57, 5-(5-(4-(1H-1,2,3-triazol-5-yl)piperidin-1-yl)-1,3,4-oxadiazol-2-yl)-N-(3,5-difluorobenzyl)pyrimidin-2-amine] |
| 84 | Fc1ccc(CNc2ncc(-c3nnc(N4CCC(c5cnn[nH]5)CC4)o3)cn2)cc1F [Example 58, 5-(5-(4-(1H-1,2,3-triazol-5-yl)piperidin-1-yl)-1,3,4-oxadiazol-2-yl)-N-(3,4-difluorobenzyl)pyrimidin-2-amine] |
| 98.5 | Brc1cc(Br)cc(CNc2ncc(-c3nnc(N4CCC(c5cnn[nH]5)CC4)o3)cn2)c1 [Example 59, 5-(5-(4-(1H-1,2,3-triazol-5-yl)piperidin-1-yl)-1,3,4-oxadiazol-2-yl)-N-(3,5-dibromobenzyl)pyrimidin-2-amine] |
| 95.3 | Cc1nc(NC2Cc3ccc(Br)cc3C2)ncc1-c1nnc(N2CCC(c3cnn[nH]3)CC2)o1 (centres unmarked) [Example 60, 5-(5-(4-(1H-1,2,3-triazol-5-yl)piperidin-1-yl)-1,3,4-oxadiazol-2-yl)-N-(5-bromo-2,3-dihydro-1H-inden-2-yl)-4-methylpyrimidin-2-amine] |
| 70 | Cc1nc(NC2Cc3cc(Br)c(Br)cc3C2)ncc1-c1nnc(N2CCC(c3cnn[nH]3)CC2)o1 [Example 61, 5-(5-(4-(1H-1,2,3-triazol-5-yl)piperidin-1-yl)-1,3,4-oxadiazol-2-yl)-N-(5,6-dibromo-2,3-dihydro-1H-inden-2-yl)-4-methylpyrimidin-2-amine] |
| 70.2 | c1ccc2c(c1)CC(Nc1ncc(CCCN3CCC(c4c[nH]nn4)CC3)cn1)C2 [Example 62, 5-(3-(4-(1H-1,2,3-triazol-4-yl)piperidin-1-yl)propyl)-N-(2,3-dihydro-1H-inden-2-yl)pyrimidin-2-amine] |
| 42.9 | Fc1cc2c(cc1F)CC(Nc1ncc(-c3nnc(N4CCC(N5CCOCC5)CC4)o3)cn1)C2 [Example 63, N-(5,6-difluoro-2,3-dihydro-1H-inden-2-yl)-5-(5-(4-morpholinopiperidin-1-yl)-1,3,4-oxadiazol-2-yl)pyrimidin-2-amine] |
| 28.1 | OC1CN(C2CCN(c3nnc(-c4cnc(NC5Cc6cc(F)c(F)cc6C5)nc4)o3)CC2)C1 [Example 64, 1-(1-(5-(2-((5,6-Difluoro-2,3-dihydro-1H-inden-2-yl)amino)pyrimidin-5-yl)-1,3,4-oxadiazol-2-yl)piperidin-4-yl)azetidin-3-ol] |
| 58 | NS(=O)(=O)C1CCN(c2nnc(-c3cnc(NC4Cc5cc(F)c(F)cc5C4)nc3)o2)CC1 [Example 65, 1-(5-(2-((5,6-Difluoro-2,3-dihydro-1H-inden-2-yl)amino)pyrimidin-5-yl)-1,3,4-oxadiazol-2-yl)piperidine-4-sulfonamide] |
| 86.8 | O=c1[nH]nc(C2CCN(c3nnc(-c4cnc(NC5Cc6cc(F)c(F)cc6C5)nc4)o3)CC2)o1 [Example 66, 5-(1-(5-(2-((5,6-Difluoro-2,3-dihydro-1H-inden-2-yl)amino)pyrimidin-5-yl)-1,3,4-oxadiazol-2-yl)piperidin-4-yl)-1,3,4-oxadiazol-2(3H)-one] |
| 30.9 | O=C(O)C1CCN(c2nnc(-c3cnc(NC4Cc5cc(F)c(F)cc5C4)nc3)o2)CC1 [Example 67, 1-(5-(2-((5,6-Difluoro-2,3-dihydro-1H-inden-2-yl)amino)pyrimidin-5-yl)-1,3,4-oxadiazol-2-yl)piperidine-4-carboxylic acid] |
| 87.1 | O=C(O)CC1CCN(c2nnc(-c3cnc(NC4Cc5cc(F)c(F)cc5C4)nc3)o2)CC1 [Example 68, 2-(1-(5-(2-((5,6-Difluoro-2,3-dihydro-1H-inden-2-yl)amino)pyrimidin-5-yl)-1,3,4-oxadiazol-2-yl)piperidin-4-yl)acetic acid] |
| 66.8 | O=C(NO)C1CCN(c2nnc(-c3cnc(NC4Cc5cc(F)c(F)cc5C4)nc3)o2)CC1 [Example 69, 1-(5-(2-((5,6-Difluoro-2,3-dihydro-1H-inden-2-yl)amino)pyrimidin-5-yl)-1,3,4-oxadiazol-2-yl)-N-hydroxypiperidine-4-carboxamide] |
| 97.9 | COC1(c2c[nH]nn2)CCN(c2nnc(-c3cnc(NC4Cc5cc(F)c(F)cc5C4)nc3)o2)CC1 [Example 70, N-(5,6-difluoro-2,3-dihydro-1H-inden-2-yl)-5-(5-(4-methoxy-4-(1H-1,2,3-triazol-4-yl)piperidin-1-yl)-1,3,4-oxadiazol-2-yl)pyrimidin-2-amine] |
| 98.6 | Fc1cc2c(cc1F)CC(Nc1ncc(-c3nnc(N4CCC(F)(c5cnn[nH]5)CC4)o3)cn1)C2 [Example 71, N-(5,6-difluoro-2,3-dihydro-1H-inden-2-yl)-5-(5-(4-fluoro-4-(1H-1,2,3-triazol-5-yl)piperidin-1-yl)-1,3,4-oxadiazol-2-yl)pyrimidin-2-amine] |
